Laboratory results reported in patent publication US20250302791A1, “METHOD FOR TREATING AND/OR PREVENTING EPILEPSY AND REDUCING SIDE EFFECT OF ANTI-EPILEPTIC DRUG BY USING CYNARIN” (FU JEN CATHOLIC UNIVERSITY, priority 2024, published 2025).

How the values were obtained:
[1] = test system: KA-induced epilepsy model in rats; test: kainic acid (KA)-induced seizure behavior in rats, Racine scale scoring (seizure score and latency); type: in vivo, Sprague-Dawley rats
Excerpt: Experimental animals are as follows. Male Sprague-Dawley rats (weight 200-250 g) purchased from BioLASCO in Taipei were housed in the Animal Center of Fu Jen Catholic University and maintained in a 12-h light/dark cycle with food and water available ad libitum. Rats were allowed to acclimate to laboratory conditions for at least 3 days before the start of the experiment.
The experimental design of the present invention is as follows. Cynarin pretreatment reduces epileptic behavior in animals induced by kainic acid (KA). […] Behavioral scoring was based on the Racine scale (1972), see FIG. 1.
Experimental grouping is as follows. […]
The experimental protocol for Racine scale behavioral scoring is as follows. The rats' epileptic seizure activity was continuously monitored for 3 hours, and epileptic behavior was scored according to the 1972 Racine scale. […]
Statistical analysis is as follows. […] Data are expressed as mean±standard error (SEM). Statistical significance was determined by one-way analysis of variation (ANOVA), combined with Bonferroni's post hoc test, and a p-value less than 0.05 was used as the criterion for significant differences.
The rats were pretreated either with normal saline (control), or CYN (0.5-25 mg/kg/day, p.o.), or CBZ (50 or 100 mg/kg/day, p.o.) or CYN 5 mg/kg/day+CBZ 50 mg/kg/day (p.o.) for 7 days before KA injection (15 mg/kg, i.p.). […] Data are expressed as mean±SEM. […]

[2] = test system: hippocampal CA1/CA3 nerve cells of KA-treated rats; test: NeuN staining of hippocampal CA1/CA3 nerve cells in KA-treated rats; type: in vivo; settings: Cynarin 10 mg/kg p.o. once daily for 7 days before KA 15 mg/kg i.p.; NeuN staining 72 h after KA
Method: In this example, rats were divided into four groups: a control group, a KA-only (15 mg/kg) treatment group, a Cynarin (CYN) (10 mg/kg) plus KA (15 mg/kg) treatment group, and a triple treatment group consisting of Cynarin (CYN) (5 mg/kg), Carbamazepine (CBZ) (50 mg/kg), and KA (15 mg/kg). During the experiment, except for the control group, rats in each group were administered Cynarin orally once daily for seven days. Then, on the eighth day, all experimental groups, except the control group, were further treated by intraperitoneal injection of KA (15 mg/kg).
FIGS. 3A and 3B show the effect of Cynarin (CYN) pretreatment on kainic acid (KA)-induced nerve cell death in the hippocampus of rats. (3A) Representative images of Neuronal nuclei (NeuN) staining at 72 h after KA i.p. injection. (3B) Semiquantitative analysis of NeuN-positive cells in the CA1 and CA3 regions. Data are mean±SEM (n=5 per group). ***, p<0.001 vs. control group. #, p<0.001 vs. KA group.

For `O=C(/C=C/c1ccc(O)c(O)c1)O[C@@H]1C[C@@](OC(=O)/C=C/c2ccc(O)c(O)c2)(C(=O)O)C[C@@H](O)[C@@H]1O` [CYN, Cynarin], the “effect on KA-induced epilepsy (seizure score and latency)” value ([1]; CYN 0.5 mg/kg/day p.o. for 7 days before KA 15 mg/kg i.p., rats observed 3 h) was “did not affect the epilepsy induced by KA”, the “inhibitory effect on epileptic seizure behavior” value ([1]; CYN 10 mg/kg/day p.o. for 7 days before KA 15 mg/kg i.p., compared with CYN 5 and 25 mg/kg, equivalent to CBZ 100 mg/kg) was “strongest inhibitory effect on epileptic seizure behavior in animals” and the “KA-induced reduction of the number of hippocampal CA1/CA3 nerve cells (NeuN-positive cells)” value [2] was “can also be reduced”.
